Values quoted from earlier work, collected in patent US20220409829A1, “ANTIVIRAL THAT DESTROYS DNA AND/OR RNA OF VIRUSES AND VIROIDS” (priority 2021, published 2022).

Experiments:
[1] = FIG. 5
[2] = within 10 minutes; inhalation; FIG. 4
[3] = FIG. 5; remark: listed apart in the source

[N-]=[N+]=O [nitrous oxide]
agranulocytosis (bone marrow; after 4 days of exposure): apparent | Megaloblastic changes in bone marrow (bone marrow; exposure to anesthetic concentrations for 24 hours): observed | blood/gas partition coefficient [1]: 0.46 | equilibration (Fa/Fi) [2]: approximately 90% | minimum alveolar concentration [3]: 105%
